Test [1] concerns ISCRU (Ischaemum rugosum, saramollagrass). As to the kind of experiment: Postemergence foliar-applied weed control, direct seeded rice, greenhouse (Example I). It is filed as in vivo, Ischaemum rugosum Salisb. The source says:
Seeds or nutlets of the desired test plant species were planted in a soil matrix prepared by mixing a loam or sandy loam soil (e.g., 28.6 percent silt, 18.8 percent clay, and 52.6 percent sand, with a pH of about 5.8 and an organic matter content of about 1.8 percent) and calcareous grit in an 80 to 20 ratio. The soil matrix was contained in plastic pots with a volume of 1 quart and a surface area of 83.6 square centimeters (cm^2). When required to ensure good germination and healthy plants, a fungicide treatment and/or other chemical or physical treatment was applied. The plants were grown for 8-22 days in a greenhouse with an approximate 14 h photoperiod which was maintained at about 29° C. during the day and 26° C. during the night. Nutrients (Peters Excel® 15-5-15 5-Ca 2-Mg and iron chelate) were applied in the irrigation solution as needed and water was added on a regular basis. Supplemental lighting was provided with overhead metal halide 1000-Watt lamps as necessary. The plants were employed for testing when they reached the first through fourth true leaf stage.
Treatments consisted of the acid or esters of 4-amino-3-chloro-5-fluoro-6-(4-chloro-2-fluoro-3-methoxy-phenyl)pyridine-2-carboxylic acid (Compound A), each formulated as an SC, and various herbicidal components alone and in combination. Forms of compound A were applied on an acid equivalent basis.
Other herbicidal components were applied on an active ingredient basis and included acetolactate synthase (ALS)-inhibiting herbicides (sulfonylurea chemical class) azimsulfuron formulated as Gulliver®, bensulfuron-methyl formulated as Londax® 60DF, cyclosulfamuron (technical material), ethoxysulfuron formulated as Sunrice® 15 WDG, flazasulfuron formulated as Katana®, flucetosulfuron formulated as Sukedachi® 1KG G, foramsulfuron formulated as Option®, imazosulfuron formulated as Brazzos® WG, iodosulfuron-methyl-sodium formulated as Hussar®, metsulfuron-methyl formulated as Lorate®, nicosulfuron formulated as Accent®, orthosulfamuron formulated as Strada® WG, primisulfuron-methyl (technical material), propyrisulfuron formulated as Zeta One®, rimsulfuron formulated as Matrix® WG, sulfometuron-methyl formulated as Oust®, and trifloxysulfuron-sodium formulated as Monument® 75WG.
Treatment requirements were calculated based upon the rates being tested, the concentration of active ingredient or acid equivalent in the formulation, and a 12 mL application volume at a rate of 187 L/ha.
For treatments comprised of formulated compounds, measured amounts of compounds were placed individually in 25 mL glass vials and diluted in a volume of 1.25% (v/v) Agri-Dex® crop oil concentrated to obtain 12× stock solutions. […] Application solutions were prepared by adding an appropriate amount of each stock solution (e.g., 1 mL) and diluted to the appropriate final concentrations with the addition of 10 mL of an aqueous mixture of 1.25% (v/v) crop oil concentrate so that the final spray solutions contained 1.25+/−0.05% (v/v) Agrcrop oil concentrate.
For treatments comprised of formulated and technical compounds, weighed amounts of the technical materials were placed individually in 25 mL glass vials and dissolved in a volume of 97:3 v/v acetone/DMSO to obtain 12× stock solutions, and measured amounts of the formulated compounds were placed individually in 25 mL glass vials and diluted in a volume of 1.25% (v/v) crop oil concentrate to obtain 12× stock solutions. […] Application solutions were prepared by adding an appropriate amount of each stock solution (e.g., 1 mL) and diluted to the appropriate final concentrations with the addition of an appropriate amount of an aqueous mixture of 1.5% (v/v) crop oil concentrate so that the final spray solutions contained 1.25% (v/v) crop oil concentrate. […]

The subject of test [2] is DIGSA (Digitaria sanguinalis, large crabgrass). The description is as above. Particulars: for Visual Weed Control (%) - 21 DAA DIGSA Obs: Table 27, foliar-applied. In kind it is in vivo, Digitaria sanguinalis (L.) Scop. Put shortly: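 Greenhouse-grown plants in loam/sandy loam–grit soil (14 h photoperiod, ~29/26 °C) were sprayed postemergence at the first to fourth true leaf stage. Compound A (acid equivalent basis) and ALS-inhibiting sulfonylureas (active ingredient basis) were applied alone and in combination in 1.25% (v/v) crop oil concentrate at 187 L/ha by track sprayer; controls received solvent blank.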

For test [3], the system named is MATCH (Chamomilla chamomilla, scented mayweed). Description: Post-emergence foliar-applied weed control in cereal crops, greenhouse (Example III). It is filed as in vivo, Chamomilla chamomilla (L.) Rydb. How it is done:
Seeds of the desired test plant species were planted in Sun Gro MetroMix® 306 planting mixture, which typically has a pH of 6.0 to 6.8 and an organic matter content of about 30 percent, in plastic pots with a surface area of 103.2 square centimeters (cm^2). When required to ensure good germination and healthy plants, a fungicide treatment and/or other chemical or physical treatment was applied. The plants were grown for 7-36 days in a greenhouse with an approximate 14 hour photoperiod which was maintained at about 18° C. during the day and 17° C. during the night. Nutrients and water were added on a regular basis and supplemental lighting was provided with overhead metal halide 1000-Watt lamps as necessary. The plants were employed for testing when they reached the second or third true leaf stage.
Treatments consisted of the benzyl ester of 4-amino-3-chloro-5-fluoro-6-(4-chloro-2-fluoro-3-methoxy-phenyl)pyridine-2-carboxylic acid (Compound A), formulated as an SC (suspension concentrate), and a second cereal herbicide alone and in combination.
Measured aliquot of benzyl ester of 4-amino-3-chloro-5-fluoro-6-(4-chloro-2-fluoro-3-methoxy-phenyl)pyridine-2-carboxylic acid (Compound A) was placed in 25 milliliter (mL) glass vials and diluted in a volume of 1.25% (v/v) Agri-dex crop oil concentrated to obtain stock solutions. Compound requirements are based upon a 12 mL application volume at a rate of 187 liters per hectare (L/ha). Spray solutions of the second cereal herbicide and experimental compound mixtures were prepared by adding the stock solutions to the appropriate amount of dilution solution to form 12 mL spray solution with active ingredients in two- and three-way combinations. Formulated compounds were applied to the plant material with an overhead Mandel track sprayer equipped with an 8002E nozzle calibrated to deliver 187 L/ha over an application area of 0.503 square meters (m^2) at a spray height of 18 inches (46 cm) above average plant canopy. Control plants were sprayed in the same manner with the solvent blank.
The treated plants and control plants were placed in a greenhouse as described above and watered by sub-irrigation to prevent wash-off of the test compounds. After 20-22 days, the condition of the test plants as compared with that of the control plants was determined visually and scored on a scale of 0 to 100 percent where 0 corresponds to no injury and 100 corresponds to complete kill.
Colby's equation was used to determine the herbicidal effects expected from the mixtures (Colby, S. R. 1967. Calculation of the synergistic and antagonistic response of herbicide combinations. Weeds 15:20-22.).
The following equation was used to calculate the expected activity of mixtures containing two active ingredients, A and B: Expected=A+B−(A×B/100)

As for `COC(=O)c1ccccc1CS(=O)(=O)NC(=O)Nc1nc(OC)cc(OC)n1` [Bensulfuron-methyl, methyl 2-[[[[[(4,6-dimethoxy-2-pyrimidinyl)amino]carbonyl]amino]sulfonyl]methyl]benzoate, reference compound], the “Visual Weed Control (%) Obs” value in test [1] (20 DAA, 70 gai/ha) is 30%.

Regarding `COc1c(Cl)ccc(-c2nc(C(=O)O)c(Cl)c(N)c2F)c1F` [Compound A Acid, 4-amino-3-chloro-5-fluoro-6-(4-chloro-2-fluoro-3-methoxy-phenyl)pyridine-2-carboxylic acid], the “Visual Weed Control (%) Obs” value in test [2] (20 DAA, 5.3 gae/ha) is 10%; in test [2] (24 DAA, 17.5 gae/ha), 25%.

Take `COc1c(Cl)ccc(-c2nc(C(=O)OCc3ccccc3)c(Cl)c(N)c2F)c1F` [Compound A Benzyl Ester]: the “Visual Weed Control (%) Obs” value in test [2] (20 DAA, 4.38 gae/ha) was found to be 20%; in test [2] (20 DAA, 8.75 gae/ha), 15%; in test [2] (20 DAA, 17.5 gae/ha), 20%; in test [2] (22 DAA, 8 gae/ha), 20%; in test [2] (22 DAA, 16 gae/ha), 20%; in test [2] (22 DAA, 32 gae/ha), 35%. For the same molecule, the “Visual Weed Control (%) Obs” value in test [1] (20 DAA, 6 gae/ha) was determined as 30%; in test [1] (20 DAA, 24 gae/ha), 35%; in test [1] (21 DAA, 8 gae/ha) it was 20%; in test [1] (21 DAA, 16 gae/ha) it was 0%. Also, the entries for the “Visual Weed Control (%) - 21 DAA DIGSA Obs” value in test [2] (8 gae/ha alone), in test [2] (16 gae/ha alone) and in test [2] (32 gae/ha alone) were 25%, 30% and 50%, respectively. In addition, the “Weed Control MATCH Obs” value is 20% in test [3] (Table 54, after 20-22 days, 8.75 gai/ha alone); 20% in test [3] (Table 55, after 20-22 days, 8.75 gai/ha alone); 20% in test [3] (Table 56, after 20-22 days, 8.75 gai/ha alone); 20% in test [3] (Table 57, after 20-22 days, 8.75 gai/ha Compound A Benzyl Ester alone); 20% in test [3] (Table 59 (cereal), after 20-22 days, 8.75 gai/ha alone).

In the case of `COC(=O)c1ccccc1S(=O)(=O)NC(=O)Nc1nc(C)nc(OC)n1` [Metsulfuron-methyl, methyl 2-[[[[(4-methoxy-6-methyl-1,3,5-triazin-2-yl)amino]carbonyl]amino]sulfonyl]benzoate, reference compound], the “Weed Control MATCH Obs” value in test [3] (Table 56, after 20-22 days, 1.1 gai/ha alone) is 89%.

The values above are taken from patent US8871681B2, “Herbicidal compositions comprising 4-amino-3-chloro-5-fluoro-6-(4-chloro-2-fluoro-3-methoxyphenyl) pyridine-2-carboxylic acid or a derivative thereof and certain sulfonylureas” (Dow AgroSciences LLC, priority 2012, dated 2014).
